Legend:
[1] = molecular target: T1, NOX2 (Homo sapiens, UniProt P04839); assay: NOX2 inhibition assay (L-012), human blood-derived granulocytes; format: cell-based; conditions: fMLP/PMA stimulated
T1 construct: endogenous in cells; host or cells: freshly isolated human blood-derived granulocytes
T1 sequence (P04839 2-570 limits assumed): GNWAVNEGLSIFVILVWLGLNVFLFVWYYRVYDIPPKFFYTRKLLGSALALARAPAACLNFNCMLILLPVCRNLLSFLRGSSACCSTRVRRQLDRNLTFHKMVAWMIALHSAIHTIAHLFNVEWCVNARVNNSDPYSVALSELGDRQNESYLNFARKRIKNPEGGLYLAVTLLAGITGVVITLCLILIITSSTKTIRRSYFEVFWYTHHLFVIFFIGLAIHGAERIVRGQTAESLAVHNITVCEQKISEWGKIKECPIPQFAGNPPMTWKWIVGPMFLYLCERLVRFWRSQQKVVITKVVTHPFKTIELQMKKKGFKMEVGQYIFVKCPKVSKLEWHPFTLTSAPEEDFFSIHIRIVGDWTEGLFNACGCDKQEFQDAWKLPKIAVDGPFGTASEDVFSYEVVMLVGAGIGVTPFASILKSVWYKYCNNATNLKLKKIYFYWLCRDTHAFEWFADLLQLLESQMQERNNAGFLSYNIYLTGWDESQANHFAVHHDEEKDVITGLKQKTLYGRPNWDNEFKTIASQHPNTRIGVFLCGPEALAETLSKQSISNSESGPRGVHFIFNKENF
T1 sequence (P13498 2-195 partner limits assumed): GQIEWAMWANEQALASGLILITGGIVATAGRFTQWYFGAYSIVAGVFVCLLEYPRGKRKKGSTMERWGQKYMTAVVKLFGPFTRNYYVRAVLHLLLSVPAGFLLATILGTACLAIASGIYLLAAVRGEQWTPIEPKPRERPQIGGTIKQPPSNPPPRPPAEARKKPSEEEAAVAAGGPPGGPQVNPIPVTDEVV
Method: Evaluation of the NOX4 inhibitors on NOX2 activity is assessed in human blood-derived granulocytes.
Afterwards, freshly isolated granulocytes are added to the wells containing the compounds in assay buffer and incubated for 1 h at 37° C. Next, a solution of Nformylmethionine-leucyl-phenylalanine (fMLP; 730 nM), phorbol myristate acetate (PMA, 100 nM) (stimuli of ROS production) and L-012 (200 μM, ROS indicator) is added to the wells and the cells are incubated for additional 30 mins at 37° C. Afterwards luminescence is measured in a SpectraMax M5 microplate reader.

[2] = molecular target: T2, human NOX5 (hNOX5) (Homo sapiens, UniProt Q96PH1); assay: NOX5 inhibition assay (L-012), HEK293 cells stably overexpressing human NOX5; format: cell-based; conditions: HEK293-hNOX5, PMA stimulated
T2 construct: expressed in transfected cells; host or cells: HEK293
T2 sequence (Q96PH1 1-765): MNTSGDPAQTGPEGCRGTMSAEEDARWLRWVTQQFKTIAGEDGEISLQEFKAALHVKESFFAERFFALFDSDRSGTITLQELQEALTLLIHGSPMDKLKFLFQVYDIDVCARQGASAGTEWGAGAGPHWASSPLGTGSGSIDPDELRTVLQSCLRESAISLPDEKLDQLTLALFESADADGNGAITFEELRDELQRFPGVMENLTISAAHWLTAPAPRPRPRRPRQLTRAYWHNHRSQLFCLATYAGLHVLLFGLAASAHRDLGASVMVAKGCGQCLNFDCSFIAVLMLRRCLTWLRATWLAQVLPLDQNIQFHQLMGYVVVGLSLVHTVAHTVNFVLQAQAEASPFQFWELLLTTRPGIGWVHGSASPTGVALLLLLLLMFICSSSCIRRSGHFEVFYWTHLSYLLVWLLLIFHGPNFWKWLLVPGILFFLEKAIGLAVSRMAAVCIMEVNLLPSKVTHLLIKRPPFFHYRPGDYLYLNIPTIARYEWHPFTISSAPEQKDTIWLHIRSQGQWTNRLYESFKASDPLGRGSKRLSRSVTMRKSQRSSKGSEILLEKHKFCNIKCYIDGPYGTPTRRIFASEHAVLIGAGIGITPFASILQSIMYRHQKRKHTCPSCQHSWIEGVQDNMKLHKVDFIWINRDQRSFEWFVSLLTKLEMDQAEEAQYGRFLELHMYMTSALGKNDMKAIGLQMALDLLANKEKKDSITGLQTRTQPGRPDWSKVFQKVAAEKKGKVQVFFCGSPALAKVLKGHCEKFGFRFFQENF
Method: The synthetic gene hNOX5 (Accession: Q96PH1) is cloned into pcDNA3.1_Zeo. […] The final construct is verified by sequencing.
Evaluation of the NOX4 inhibitors on NOX5 activity is assessed in HEK293 cells stably overexpressing human NOX5 (hNOX5).
Cells are seeded in 384 well plates over-night. […] Cells are then stimulated with PMA at 0.1 μM to induce NOX5-dependent ROS production. […] Luminescence is measured with an PHERAstar multimode reader.

[3] = tested on: human hepatocytes; assay: Evaluation of hepatocyte clearance (metabolic stability); format: in vitro ADME; conditions: 1 μM test compound, 5% human serum, Table 3
Method: The metabolic degradation of the test compound is assayed in a hepatocyte suspension. Hepatocytes (cryopreserved) are incubated in Dulbecco's modified eagle medium (supplemented with […] glucagon/500 mL, 2.5 mg insulin/500 mL and 3.75 mg/500 mL hydrocortisone) containing 5% human serum.
Following a 30 min preincubation in an incubator (37° C., 10% CO2) 5 μl of test compound solution (80 μM; from 2 mM in DMSO stock solution diluted 1:25 with medium) are added into 395 μl hepatocyte suspension (cell density in the range 0.25-5 Mio cells/mL, typically 1 Mio cells/mL; final concentration of test compound 1 μM, final DMSO concentration 0.05%).
The cells are incubated for six hours (incubator, orbital shaker) and samples (25 μl) are taken at 0, 0.5, 1, 2, 4 and 6 hours. Samples are transferred into acetonitrile and pelleted by centrifugation (5 min). The supernatant is transferred to a new 96-deepwell plate, evaporated under nitrogen and resuspended.
Decline of Parent Compound is Analyzed by HPLC-MS/MS.
CLint is Calculated as Follows:
CL_[…]=Dose/AUC=(C0/CD)/(AUD+clast/k)×1000/60. • C0: initial concentration in the incubation [μM], CD: cell density of vital cells [10^6 cells/mL], AUD: area under the data [μM×h], clast: concentration of last data point [μM], • k: slope of the regression line for parent decline [h-1].
The calculated in vitro hepatic intrinsic clearance can be scaled up to the intrinsic in vivo hepatic clearance and used to predict hepatic in vivo blood clearance (CL) by the use of a liver model (well stirred model).
CL_[…]_INVIVO[ml/min/kg]=(CL_[…][μL/min/10^6 cells]×hepatocellularity[10^6 cells/g liver]×liver factor[g/kg bodyweight])/1000
CL[ml/min/kg]=CL_[…]_INVIVO[ml/min/kg]×hepatic blood flow[ml/min/kg]/(CL_[…]_INVIVO[ml/min/kg]+hepatic blood flow[ml/min/kg])

For `O=c1c2scnc2nc(SCc2c(F)cc(F)cc2F)n1-c1cc(F)c(O)cc1F` [Example 10, 6-(2,5-Difluoro-4-hydroxyphenyl)-5-((2,4,6-trifluorobenzyl)thio)thiazolo[4,5-d]pyrimidin-7(6H)-one], the IC50 [1] was greater than 30 µM, the IC50 [2] was 11.5 µM and the “Qh [%]” value [3] was 72%.

In the case of `Cc1cc(Cl)ccc1CSc1nc2ncsc2c(=O)n1-c1ccc(O)nc1` [Example 23], the IC50 [1] is reported as greater than 100 µM, the IC50 [2] is reported as greater than 100 µM and the “Qh [%]” value [3] is reported as 55%.

With `O=c1c2scnc2nc(SCc2ccc(C(F)(F)F)cc2)n1-c1ccc(O)nn1` [Example 66] the IC50 [1] was greater than 100 µM, the IC50 [2] was 74.8 µM and the “Qh [%]” value [3] was 40%.

For `O=c1c2scnc2nc(SCc2ccc(Cl)cc2F)n1-c1cc(F)c(O)c(F)c1` [Example 2, 5-((4-Chloro-2-fluorobenzyl)thio)-6-(3,5-difluoro-4-hydroxyphenyl)thiazolo[4,5-d]-pyrimidin-7(6H)-one], the IC50 [1] was greater than 100 µM, the IC50 [2] was greater than 100 µM and the “Qh [%]” value [3] was 53%.

`O=c1c2scnc2nc(SCc2ccc(C(F)(F)F)cc2F)n1-c1ccc(O)nc1` [Example 26] was tested, and the IC50 [1] was greater than 100 µM, the IC50 [2] was 57.4 µM and the “Qh [%]” value [3] was 41%.

With `O=c1c2scnc2nc(SCc2c(F)cc(F)cc2F)n1-c1cc(F)c(O)nc1F` [Example 51, 6-(2,5-Difluoro-6-hydroxypyridin-3-yl)-5-((2,4,6-trifluorobenzyl)thio)thiazolo[4,5-d]-pyrimidin-7(6H)-one] the IC50 [1] was greater than 100 µM, the IC50 [2] was 59.4 µM and the “Qh [%]” value [3] was 10%.

For `O=c1c2scnc2nc(SCc2c(F)cc(F)cc2Cl)n1-c1cnc(O)c(F)c1` [Example 41], the IC50 [1] was 39.3 µM, the IC50 [2] was 35.8 µM and the “Qh [%]” value [3] was 26%.

`O=c1c2scnc2nc(SCc2c(F)cc(F)cc2F)n1-c1ccc(O)c(Cl)c1` [Example 16] was tested, and the IC50 [1] was greater than 100 µM, the IC50 [2] was 36 µM and the “Qh [%]” value [3] was 73%.

`O=c1c2scnc2nc(SCc2c(F)cc(F)cc2F)n1-c1c(F)cc(O)cc1F` [Example 13] was tested, and the IC50 [1] was 84.6 µM and the IC50 [2] was 5.1 µM.

`O=c1c2scnc2nc(SCc2ccc(C(F)(F)F)cc2)n1-c1cnc(O)nc1` [Example 60] was tested, and the IC50 [1] was greater than 100 µM, the IC50 [2] was greater than 100 µM and the “Qh [%]” value [3] was 8%.

For `O=c1c2scnc2nc(SCc2c(F)cc(F)cc2F)n1-c1ccc(O)nn1` [Example 67], the IC50 [1] was greater than 30 µM, the IC50 [2] was greater than 100 µM and the “Qh [%]” value [3] was 37%.

In the case of `O=c1c2scnc2nc(SCc2ccc(F)cc2)n1-c1ccc(O)nc1` [Example 30], the IC50 [1] is reported as greater than 30 µM, the IC50 [2] is reported as 94.8 µM and the “Qh [%]” value [3] is reported as 22%.

`O=c1c2scnc2nc(SCc2ccc(Cl)cc2F)n1-c1cnc(O)c(F)c1` [Example 35] was tested, and the IC50 [1] was greater than 100 µM, the IC50 [2] was 65.5 µM and the “Qh [%]” value [3] was 15%.

For `Cc1c(F)cccc1CSc1nc2ncsc2c(=O)n1-c1cnc(O)c(F)c1` [Example 40], the IC50 [1] was greater than 100 µM and the IC50 [2] was 56.3 µM.

`Cc1cc(F)cc(C)c1CSc1nc2ncsc2c(=O)n1-c1ccc(O)nn1` [Example 63] gave an IC50 [1] of 46 µM and an IC50 [2] greater than 100 µM.

`Cc1cc(F)ccc1CSc1nc2ncsc2c(=O)n1-c1ccc(O)nn1` [Example 68] gave an IC50 [1] greater than 100 µM and an IC50 [2] greater than 100 µM.

`Cc1cc(F)ccc1CSc1nc2ncsc2c(=O)n1-c1cc(F)c(O)c(F)c1` [Example 9] was tested, and the IC50 [1] was greater than 100 µM, the IC50 [2] was greater than 100 µM and the “Qh [%]” value [3] was 65%.

For `O=c1c2scnc2nc(SCc2c(F)cc(F)cc2F)n1-c1cnc(O)c(F)c1` [Example 31, 6-(5-Fluoro-6-hydroxypyridin-3-yl)-5-((2,4,6-trifluorobenzyl)thio)thiazolo[4,5-d]-pyrimidin-7(6H)-one], the IC50 [1] was 10.5 µM, the IC50 [2] was greater than 100 µM and the “Qh [%]” value [3] was 14%.

In the case of `O=c1c2scnc2nc(SCc2ccc(C(F)(F)F)cc2F)n1-c1cnc(O)nc1` [Example 57], the IC50 [1] is reported as greater than 100 µM, the IC50 [2] is reported as greater than 100 µM and the “Qh [%]” value [3] is reported as 7%.

With `Cc1cc(Cl)ccc1CSc1nc2ncsc2c(=O)n1-c1ccc(O)nn1` [Example 62] the IC50 [1] was greater than 100 µM, the IC50 [2] was greater than 100 µM and the “Qh [%]” value [3] was 58%.

`O=c1c2scnc2nc(SCc2c(F)cc(F)cc2F)n1-c1ncc(O)cn1` [Example 21, 6-(5-Hydroxypyrimidin-2-yl)-5-((2,4,6-trifluorobenzyl)thio)thiazolo[4,5-d]pyrimidin-7(6H)-one] was tested, and the IC50 [1] was greater than 100 µM, the IC50 [2] was greater than 100 µM and the “Qh [%]” value [3] was 27%.

`O=c1c2scnc2nc(SCc2ccc(C(F)(F)F)cc2Cl)n1-c1cnc(O)c(F)c1` [Example 46] was tested, and the IC50 [1] was greater than 100 µM, the IC50 [2] was 44.7 µM and the “Qh [%]” value [3] was 21%.

For `Cc1cc(Cl)ccc1CSc1nc2ncsc2c(=O)n1-c1cc(F)c(O)c(F)c1` [Example 3], the IC50 [1] was greater than 100 µM and the IC50 [2] was greater than 100 µM.

`O=c1c2scnc2nc(SCc2c(F)cc(F)cc2F)n1-c1ccc(O)c(F)c1F` [Example 12] was tested, and the IC50 [1] was greater than 30 µM and the “Qh [%]” value [3] was 77%.

In the case of `Cc1cc(Cl)ccc1CSc1nc2ncsc2c(=O)n1-c1cnc(O)nc1` [Example 54], the IC50 [1] is reported as greater than 100 µM, the IC50 [2] is reported as 47.6 µM and the “Qh [%]” value [3] is reported as 33%.

For `O=c1c2scnc2nc(SCc2c(F)cc(F)cc2F)n1-c1ccc(O)c(F)c1` [Example 11], the IC50 [1] was greater than 30 µM, the IC50 [2] was 13 µM and the “Qh [%]” value [3] was 79%.

`N#Cc1cc(-n2c(SCc3c(F)cc(F)cc3F)nc3ncsc3c2=O)cnc1O` [Example 47, 2-Hydroxy-5-(7-oxo-5-((2,4,6-trifluorobenzyl)thio)thiazolo[4,5-d]pyrimidin-6(7H)-yl)-nicotinonitrile] was tested, and the IC50 [1] was greater than 30 µM, the IC50 [2] was greater than 100 µM and the “Qh [%]” value [3] was 15%.

For `O=c1c2scnc2nc(SCc2ccc(C(F)(F)F)cc2F)n1-c1cc(F)c(O)c(F)c1` [Example 6], the IC50 [1] was greater than 100 µM and the IC50 [2] was greater than 100 µM.

With `O=c1c2scnc2nc(SCc2c(F)cc(F)cc2F)n1-c1ccc(O)cc1Cl` [Example 17] the IC50 [2] was 17.5 µM and the “Qh [%]” value [3] was 70%.

— patent US20240327429A1, “[1,3]Thiazolo[4,5-d]-pyrimidon-7-ones as inhibitors of NOX4” (Boehringer Ingelheim International GmbH, priority 2023, published 2024)
